How the values were obtained:
[1] = Stability in monkey hepatocytes assessed as parent compound remaining at 10 uM incubated for 120 mins; type: ADME, cell-based, Macaca mulatta, Hepatocyte; settings: rhesus monkey, read-out: Stability
Rattus norvegicus [2] = experiment: Elevation of O-protein in rat brain at 10 mg/kg, po measured after 24 hrs; type: functional
[3] = Volume of distribution at steady state in Wistar Han rat at 2 mg/kg, iv or 10 mg/kg, po; type: ADME, organism-based; settings: in vivo, read-out: Vdss
[4] = Ratio of drug level in monkey blood to plasma; type: ADME, cell-free, Macaca mulatta; settings: rhesus monkey, whole blood
[5] = Oral bioavailability in Wistar Han rat at 10 mg/kg; type: ADME, organism-based; settings: in vivo
[6] = Half life in Beagle dog at 1 mg/kg, iv; type: ADME, organism-based, Canis lupus familiaris; settings: in vivo
[7] = Protein binding in monkey plasma; type: ADME, cell-free, Macaca mulatta; settings: rhesus monkey, read-out: PPB
Cytochrome P450 1A2 = target: T1, Cytochrome P450 1A2 (Homo sapiens, UniProt P05177); experiment: Induction of CYP1A2 in human hepatocytes upto 20 uM; type: ADME, cell-based
T1 sequence (P05177 whole entry): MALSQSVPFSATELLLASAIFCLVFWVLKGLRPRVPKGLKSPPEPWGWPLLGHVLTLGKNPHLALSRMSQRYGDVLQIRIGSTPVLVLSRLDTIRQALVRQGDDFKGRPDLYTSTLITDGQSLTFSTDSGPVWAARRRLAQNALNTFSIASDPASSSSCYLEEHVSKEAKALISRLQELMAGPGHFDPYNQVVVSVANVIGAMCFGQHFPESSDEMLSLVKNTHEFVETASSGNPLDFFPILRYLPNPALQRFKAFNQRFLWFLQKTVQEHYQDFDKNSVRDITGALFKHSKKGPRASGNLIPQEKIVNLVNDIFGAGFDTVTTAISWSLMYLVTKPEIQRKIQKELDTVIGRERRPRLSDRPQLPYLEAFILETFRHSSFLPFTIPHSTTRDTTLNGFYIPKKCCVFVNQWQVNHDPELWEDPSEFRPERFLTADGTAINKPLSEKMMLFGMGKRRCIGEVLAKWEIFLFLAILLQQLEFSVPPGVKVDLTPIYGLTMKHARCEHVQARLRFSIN

[8] = Tmax in rat brain at 10 mg/kg, po measured upto 24 hrs; type: ADME, organism-based
Cytochrome P450 3A4 = Cytochrome P450 3A4 (Homo sapiens, UniProt P08684); experiment: Induction of CYP3A4 in human hepatocytes upto 20 uM; type: ADME, cell-based
Chain of Cytochrome P450 3A4 (P08684 whole entry): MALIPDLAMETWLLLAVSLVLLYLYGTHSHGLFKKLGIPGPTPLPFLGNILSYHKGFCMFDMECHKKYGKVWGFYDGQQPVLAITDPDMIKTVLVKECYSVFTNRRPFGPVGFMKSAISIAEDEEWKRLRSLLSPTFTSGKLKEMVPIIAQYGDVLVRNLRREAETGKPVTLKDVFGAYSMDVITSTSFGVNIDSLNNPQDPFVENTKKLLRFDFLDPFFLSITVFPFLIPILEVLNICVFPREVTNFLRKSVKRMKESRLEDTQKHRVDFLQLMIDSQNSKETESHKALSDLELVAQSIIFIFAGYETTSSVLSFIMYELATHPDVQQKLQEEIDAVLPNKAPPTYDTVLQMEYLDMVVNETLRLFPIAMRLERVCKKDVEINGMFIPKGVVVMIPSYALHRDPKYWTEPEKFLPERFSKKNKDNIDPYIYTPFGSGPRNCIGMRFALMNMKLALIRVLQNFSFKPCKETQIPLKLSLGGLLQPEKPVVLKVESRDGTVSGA

[9] = AUCN in Beagle dog at 3 mg/kg, po; type: ADME, organism-based, Canis lupus familiaris; settings: in vivo
Rattus norvegicus [10] = experiment: Increase in O-protein AUC in rat brain at 10 mg/kg, po measured upto 24 hrs; type: ADME, organism-based; settings: in vivo
[11] = Fraction unbound in human plasma at 2.5 uM by equilibrium dialysis; type: ADME, cell-free
[12] = Ratio of drug level in rat blood to plasma; type: ADME, cell-free; settings: whole blood
[13] = Drug uptake in rat brain at 3 mg/kg, po measured after 24 hrs; type: ADME, organism-based; settings: in vivo
Cav1.2 = Cav1.2 (Homo sapiens, UniProt Q13936); experiment: Inhibition of Cav1.2 (unknown origin) at 30 uM
Chain of Cav1.2 (Q13936 whole entry): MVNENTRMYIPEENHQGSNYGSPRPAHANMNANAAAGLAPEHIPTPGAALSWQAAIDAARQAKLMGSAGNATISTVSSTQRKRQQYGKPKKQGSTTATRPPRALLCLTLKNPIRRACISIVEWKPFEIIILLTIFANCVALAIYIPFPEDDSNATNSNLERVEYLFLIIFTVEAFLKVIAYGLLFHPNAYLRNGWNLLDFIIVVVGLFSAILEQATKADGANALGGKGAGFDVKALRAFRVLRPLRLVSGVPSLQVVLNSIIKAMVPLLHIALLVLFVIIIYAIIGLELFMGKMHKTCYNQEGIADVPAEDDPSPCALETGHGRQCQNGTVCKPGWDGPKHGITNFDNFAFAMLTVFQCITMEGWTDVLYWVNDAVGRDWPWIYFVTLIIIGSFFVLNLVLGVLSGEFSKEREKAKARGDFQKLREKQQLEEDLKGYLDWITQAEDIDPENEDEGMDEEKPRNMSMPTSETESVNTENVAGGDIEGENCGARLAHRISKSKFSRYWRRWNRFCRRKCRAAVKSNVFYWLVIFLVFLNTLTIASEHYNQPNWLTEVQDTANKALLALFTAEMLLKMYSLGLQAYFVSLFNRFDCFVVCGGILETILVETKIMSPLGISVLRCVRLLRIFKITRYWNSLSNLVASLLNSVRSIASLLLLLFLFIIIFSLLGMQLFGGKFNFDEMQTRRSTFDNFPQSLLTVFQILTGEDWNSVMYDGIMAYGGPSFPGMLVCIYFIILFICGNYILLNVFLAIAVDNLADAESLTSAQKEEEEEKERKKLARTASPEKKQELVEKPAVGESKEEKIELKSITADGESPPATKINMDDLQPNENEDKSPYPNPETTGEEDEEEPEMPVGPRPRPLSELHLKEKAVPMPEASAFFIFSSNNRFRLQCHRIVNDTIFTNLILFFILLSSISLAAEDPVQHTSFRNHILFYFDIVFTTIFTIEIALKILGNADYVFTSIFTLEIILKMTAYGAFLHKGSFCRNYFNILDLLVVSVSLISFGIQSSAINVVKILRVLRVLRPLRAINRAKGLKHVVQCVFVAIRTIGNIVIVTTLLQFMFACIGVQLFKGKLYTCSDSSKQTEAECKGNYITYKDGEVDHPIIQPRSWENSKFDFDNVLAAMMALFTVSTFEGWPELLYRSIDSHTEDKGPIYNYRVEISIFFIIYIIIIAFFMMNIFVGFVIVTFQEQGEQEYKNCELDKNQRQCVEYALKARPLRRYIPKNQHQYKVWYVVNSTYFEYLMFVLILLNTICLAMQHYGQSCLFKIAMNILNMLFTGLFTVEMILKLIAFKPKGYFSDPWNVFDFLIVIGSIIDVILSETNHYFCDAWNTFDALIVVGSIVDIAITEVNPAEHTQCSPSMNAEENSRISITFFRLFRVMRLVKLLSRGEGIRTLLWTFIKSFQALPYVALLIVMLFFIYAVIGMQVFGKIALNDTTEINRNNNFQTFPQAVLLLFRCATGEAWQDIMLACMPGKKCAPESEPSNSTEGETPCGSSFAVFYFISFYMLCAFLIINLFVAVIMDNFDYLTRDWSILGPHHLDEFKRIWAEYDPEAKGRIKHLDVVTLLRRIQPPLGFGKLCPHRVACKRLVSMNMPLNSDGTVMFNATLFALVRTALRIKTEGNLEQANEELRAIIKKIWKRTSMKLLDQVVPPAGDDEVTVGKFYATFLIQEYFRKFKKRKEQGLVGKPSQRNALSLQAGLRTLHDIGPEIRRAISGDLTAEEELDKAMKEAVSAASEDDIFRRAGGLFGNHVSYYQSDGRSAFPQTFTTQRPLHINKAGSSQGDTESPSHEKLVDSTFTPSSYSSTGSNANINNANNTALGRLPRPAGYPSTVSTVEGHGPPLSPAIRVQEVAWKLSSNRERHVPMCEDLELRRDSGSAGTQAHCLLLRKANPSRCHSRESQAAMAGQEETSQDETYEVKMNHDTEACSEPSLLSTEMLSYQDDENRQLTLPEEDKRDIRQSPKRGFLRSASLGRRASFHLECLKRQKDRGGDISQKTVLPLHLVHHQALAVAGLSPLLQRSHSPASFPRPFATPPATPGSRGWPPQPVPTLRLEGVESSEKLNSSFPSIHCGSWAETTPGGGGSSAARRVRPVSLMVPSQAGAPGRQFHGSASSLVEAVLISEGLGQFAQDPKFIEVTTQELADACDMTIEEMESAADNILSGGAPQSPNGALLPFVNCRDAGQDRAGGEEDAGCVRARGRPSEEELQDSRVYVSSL

[14] = Toxicity in rat assessed as change in serum chemistry at 1000 mg/kg, po administered for 7 days and measured on day 8; type: organism-based; settings: in vivo, 168 h
Cytochrome P450 2B6 = target: T2, Cytochrome P450 2B6 (Homo sapiens, UniProt P20813); experiment: Induction of CYP2B6 in human hepatocytes upto 20 uM; type: ADME, cell-based
T2 sequence (P20813 whole entry): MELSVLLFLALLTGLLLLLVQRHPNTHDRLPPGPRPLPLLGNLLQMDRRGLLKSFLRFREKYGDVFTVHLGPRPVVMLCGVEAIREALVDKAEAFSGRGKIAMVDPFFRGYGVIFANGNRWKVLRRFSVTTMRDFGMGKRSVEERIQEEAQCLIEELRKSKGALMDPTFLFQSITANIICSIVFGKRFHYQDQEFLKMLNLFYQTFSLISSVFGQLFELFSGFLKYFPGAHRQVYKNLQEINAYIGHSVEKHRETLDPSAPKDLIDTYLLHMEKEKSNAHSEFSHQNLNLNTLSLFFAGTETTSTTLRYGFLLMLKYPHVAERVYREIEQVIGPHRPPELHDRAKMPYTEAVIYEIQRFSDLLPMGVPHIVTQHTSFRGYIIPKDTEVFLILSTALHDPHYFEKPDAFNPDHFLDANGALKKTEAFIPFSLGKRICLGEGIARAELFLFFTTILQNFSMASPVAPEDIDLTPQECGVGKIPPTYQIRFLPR

[15] = AUCN in rhesus monkey at 3 mg/kg, po; type: ADME, organism-based, Macaca mulatta; settings: in vivo
Protein O-GlcNAcase = target: T3, Protein O-GlcNAcase (Homo sapiens, UniProt O60502); experiment: Inhibition of recombinant human OGA
T3 sequence (O60502 whole entry): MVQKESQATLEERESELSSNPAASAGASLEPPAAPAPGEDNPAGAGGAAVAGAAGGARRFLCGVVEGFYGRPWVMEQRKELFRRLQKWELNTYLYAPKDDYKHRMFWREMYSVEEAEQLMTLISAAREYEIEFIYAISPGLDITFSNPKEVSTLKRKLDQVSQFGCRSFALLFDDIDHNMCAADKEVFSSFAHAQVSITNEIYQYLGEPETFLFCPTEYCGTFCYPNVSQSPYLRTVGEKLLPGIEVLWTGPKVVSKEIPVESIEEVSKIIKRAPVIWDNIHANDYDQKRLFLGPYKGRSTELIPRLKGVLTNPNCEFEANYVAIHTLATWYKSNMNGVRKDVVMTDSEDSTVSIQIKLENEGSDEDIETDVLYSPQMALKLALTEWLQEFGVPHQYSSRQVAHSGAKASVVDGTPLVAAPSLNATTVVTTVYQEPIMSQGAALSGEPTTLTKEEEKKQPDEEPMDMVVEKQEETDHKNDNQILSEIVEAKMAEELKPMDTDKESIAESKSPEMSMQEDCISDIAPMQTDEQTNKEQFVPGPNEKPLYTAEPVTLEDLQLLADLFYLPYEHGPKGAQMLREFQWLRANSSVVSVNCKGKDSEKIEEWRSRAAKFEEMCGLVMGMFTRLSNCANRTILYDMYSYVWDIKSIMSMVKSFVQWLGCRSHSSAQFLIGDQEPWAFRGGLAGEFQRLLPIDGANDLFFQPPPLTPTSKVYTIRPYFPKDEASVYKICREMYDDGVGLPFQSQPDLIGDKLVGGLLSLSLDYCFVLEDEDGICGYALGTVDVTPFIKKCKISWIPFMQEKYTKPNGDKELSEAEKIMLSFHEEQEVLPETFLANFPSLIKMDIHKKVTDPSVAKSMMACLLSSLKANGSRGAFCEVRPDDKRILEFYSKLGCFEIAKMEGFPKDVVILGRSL

[16] = Ratio of drug level in dog blood to plasma; type: ADME, cell-free, Canis lupus familiaris; settings: whole blood
[17] = AUC (0 to 24 hrs) in rat brain at 10 mg/kg, po measured upto 24 hrs; type: ADME, organism-based; design: dose 10 mg/kg, time < 24 hr, route oral; settings: in vivo
[18] = Cmax in rat assessed as change in histomorphology at 1000 mg/kg, po administered for 7 days and measured on day 8; type: ADME, organism-based; design: dose 1000 mg/kg, route oral; settings: in vivo
[19] = Cmax in telemetered dog at 380 mg/kg, po; type: ADME, organism-based, Canis lupus familiaris; design: dose 380 mg/kg, route oral; settings: in vivo
[20] = Protein binding in rat plasma; type: ADME, cell-free; settings: read-out: PPB
[21] = Fraction unbound in Wistar Han rat plasma at 2.5 uM by equilibrium dialysis; type: ADME, cell-free

Q: Which remaining at 2 h, 10 µM [1] does the source give for `CCNC1=N[C@@H]2[C@@H](O)[C@H](O)[C@@H](C(F)F)O[C@@H]2S1` here?
A: 58%

Q: What about the “fold change (FC)” value (Rattus norvegicus [2]) of the same compound?
A: 2.57

Q: What about the Vd [3] of the same compound?
A: 3.7 L/kg

Q: What about the blood plasma ratio [4] of the same compound?
A: 0.9 to 1.1

Q: And the bioavailability [5]?
A: 80%

Q: What about the half-life [6] of the same compound?
A: 2.3 h

Q: And the fraction unbound [7]?
A: > 0.95

Q: And the Activity (Cytochrome P450 1A2)?
A: Not Active

Q: What about the Tmax [8] of the same compound?
A: 8 h

Q: What about the Activity (Cytochrome P450 3A4) of the same compound?
A: Not Active

Q: And the AUC/dose [9]?
A: 14.2 µM·kg·h/mg

Q: And the “fold change (FC)” value (Rattus norvegicus [10])?
A: 31.42

Q: And the fraction unbound at 2.5 µM [11]?
A: 0.99

Q: And the blood plasma ratio [12]?
A: 0.9 to 1.1

Q: What about the Drug uptake [13] of the same compound?
A: 0.088 nmol/g

Q: And the inhibition at 30 µM (Cav1.2)?
A: < 50%

Q: And the Activity [14]?
A: Non-Toxic

Q: What about the Activity (Cytochrome P450 2B6) of the same compound?
A: Not Active

Q: And the AUC/dose [15]?
A: 0.61 µM·kg·h/mg

Q: What about the Ki (Protein O-GlcNAcase) of the same compound?
A: 7.9 nM

Q: What about the blood plasma ratio [16] of the same compound?
A: 0.9 to 1.1

Q: What about the AUC [17] of the same compound?
A: 9.64 nM·h/g

Q: And the Cmax [18]?
A: 226 µM

Q: What about the Cmax [19] of the same compound?
A: 660 µM

Q: And the fraction unbound [20]?
A: > 0.95

Q: What about the fraction unbound at 2.5 µM [21] of the same compound?
A: 0.97
